Experimental data published in US11000033B2, “Ketone or oxime compound, and herbicide” (NISSAN CHEMICAL CORPORATION, priority 2014, dated 2021).

Legend:
Format in all cases: in vivo
Apera spica-venti = test: Test Example 5: herbicidal effect by foliage application, plastic box (symbol L); conditions: 320 g/ha, 3 weeks after application
Summary of the method: (§1)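 Seeds were sown in sterilized diluvial soil, covered with about 1.5 cm of soil and grown 14 days in a greenhouse at 25° C. to 30° C. An emulsifiable formulation diluted in water to a set rate was sprayed over foliage, and injury was scored 3 weeks later.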

[1] = system: Echinochloa oryzacola Vasing.; test: Test Example 1: herbicidal activity, application before weed generation in submerged conditions (symbol A); conditions: application herbicide amount 320 g/ha
Summary of the method: (§2)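 Scores run 0 to 5 by herbicidal ratio, with 5 meaning 90% or more and 0 meaning 5% or lower, read 3 weeks after treatment. Compound was applied as a diluted emulsion to the water surface of submerged alluvial-soil pots on the day weed seeds were sown.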

Lolium multiflorum Lam. = test: Test Example 5: herbicidal effect by foliage application, plastic box (symbol K); conditions: 320 g/ha, 3 weeks after application
Summary of the method: as §1

Cyperus difformis = test: Test Example 3: herbicidal effect by foliage application, Wagner pot (symbol E); conditions: application herbicide amount 320 g/ha
Summary of the method: (§3)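 Scoring took place 3 weeks after application, using fixed criteria. Plants had been raised from seed for 14 days at 25 to 30 °C in submerged alluvial soil before a diluted emulsion of the test compound was sprayed uniformly on the leaves.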

Stellaria media = test: Test Example 5: herbicidal effect by foliage application, plastic box (symbol P); conditions: 320 g/ha, 3 weeks after application
Summary of the method: as §1

rapeseed = test: Test Example 5: effect on crop by foliage application, plastic box (symbol g); conditions: 320 g/ha, 3 weeks after application
Summary of the method: (§4)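 Greenhouse culture at 25° C. to 30° C. followed spot-like sowing into sterilized diluvial soil, with seed covered by roughly 1.5 cm of soil.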

wheat = test: Test Example 5: effect on crop by foliage application, plastic box (symbol e); conditions: 320 g/ha, 3 weeks after application
Summary of the method: as §4

Chenopodium album = test: Test Example 5: herbicidal effect by foliage application, plastic box (symbol O); conditions: 320 g/ha, 3 weeks after application
Summary of the method: as §1

Scirpus juncoides [2] = test: Test Example 1: herbicidal activity, application before weed generation in submerged conditions (symbol B); conditions: application herbicide amount 320 g/ha
Summary of the method: as §2

Abutilon theophrasti = test: Test Example 5: herbicidal effect by foliage application, plastic box (symbol M); conditions: 320 g/ha, 3 weeks after application
Summary of the method: as §1

soybean = test: Test Example 5: effect on crop by foliage application, plastic box (symbol d); conditions: 320 g/ha, 3 weeks after application
Summary of the method: as §4

Monochoria vaginalis [3] = test: Test Example 1: herbicidal activity, application before weed generation in submerged conditions (symbol C); conditions: application herbicide amount 320 g/ha
Summary of the method: as §2

corn = test: Test Example 5: effect on crop by foliage application, plastic box (symbol c); conditions: 320 g/ha, 3 weeks after application
Summary of the method: as §4

Setaria viridis = test: Test Example 5: herbicidal effect by foliage application, plastic box (symbol G); conditions: 320 g/ha, 3 weeks after application
Summary of the method: as §1

Digitaria ciliaris = test: Test Example 5: herbicidal effect by foliage application, plastic box (symbol F); conditions: 320 g/ha, 3 weeks after application
Summary of the method: as §1

Leptochloa chinensis = test: Test Example 3: herbicidal effect by foliage application, Wagner pot (symbol D); conditions: application herbicide amount 320 g/ha
Summary of the method: as §3

rice plant = test: Test Example 5: effect on crop by foliage application, plastic box (symbol b); conditions: 320 g/ha, 3 weeks after application
Summary of the method: as §4

Amaranthus retroflexus = test: Test Example 5: herbicidal effect by foliage application, plastic box (symbol N); conditions: 320 g/ha, 3 weeks after application
Summary of the method: as §1

[4] = system: Echinochloa crus-galli var. crus-galli; test: Test Example 3: herbicidal effect by foliage application, Wagner pot (symbol H); conditions: application herbicide amount 320 g/ha
Summary of the method: as §3

[5] = system: directly sowed rice plant; test: Test Example 3: effect on crop by foliage application, Wagner pot (symbol b); conditions: application herbicide amount 320 g/ha
Summary of the method: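 Alluvial soil in a 1/10000-are Wagner pot was flooded to a water depth of 0.1–0.5 cm. Echinochloa crus-galli var. crus-galli, Leptochloa chinensis, Cyperus difformis and rice were sown into it and grown in a greenhouse at 25–30 °C.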

Alopecurus myosuroides = test: Test Example 5: herbicidal effect by foliage application, plastic box (symbol J); conditions: 320 g/ha, 3 weeks after application
Summary of the method: as §1

Avena fatua = test: Test Example 5: herbicidal effect by foliage application, plastic box (symbol I); conditions: 320 g/ha, 3 weeks after application
Summary of the method: as §1

transplanted rice plant = test: Test Example 1: effect on crop, application before weed generation in submerged conditions (symbol a); conditions: application herbicide amount 320 g/ha
Summary of the method: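 Alluvial soil pots flooded to 4 cm water, sown with Echinochloa oryzacola, Scirpus juncoides and Monochoria vaginalis, then transplanted with 2.5 leaf stage rice seedlings; pre-emergence application. Greenhouse 25° C. to 30° C.; scored 0–5 by herbicidal ratio 3 weeks after application.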

Galium spurium = test: Test Example 5: herbicidal effect by foliage application, plastic box (symbol Q); conditions: 320 g/ha, 3 weeks after application
Summary of the method: as §1

Veronica persica = test: Test Example 5: herbicidal effect by foliage application, plastic box (symbol R); conditions: 320 g/ha, 3 weeks after application
Summary of the method: as §1

[6] = system: Echinochloa crus-galli var. crus-galli; test: Test Example 5: herbicidal effect by foliage application, plastic box (symbol H); conditions: 320 g/ha, 3 weeks after application
Summary of the method: as §1

beet = test: Test Example 5: effect on crop by foliage application, plastic box (symbol f); conditions: 320 g/ha, 3 weeks after application
Summary of the method: as §4

[7] = system: Echinochloa oryzacola Vasing.; test: Test Example 2: herbicidal activity, application during weed generation in submerged conditions (symbol A); conditions: Table 23; application herbicide amount 320 g/ha; grade 0-5 by criteria of Test Example 1
Method: (§5) Herbicidal Activity Test by Application During Weed Generation in Submerged Conditions
(§6) After alluvial soil was placed into 1/10000 are of Wagner pot, water was poured and mixed to form a submerged condition having a water depth of 4 cm. Seeds of Echinochloa oryzacola Vasing., Scirpus juncoides, and Monochoria vaginalis were sowed in a mixed manner in the above pot and the pot was placed in the greenhouse of 25° C. to 30° C. to grow the plants. When Echinochloa oryzacola Vasing., Scirpus juncoides, and Monochoria vaginalis were grown to one leaf stage to two leaf stage, the emulsion agent of the compound of the present invention prepared in accordance with Formulation Example 2 was diluted with water so as to be a predetermined herbicide amount and the diluted emulsion agent was applied to the surface of the water. 3 weeks later from the herbicide application, the effect to each plant was investigated in accordance with the criteria of Test Example 1.

Monochoria vaginalis [8] = test: Test Example 2: herbicidal activity, application during weed generation in submerged conditions (symbol C); conditions: Table 23; application herbicide amount 320 g/ha; grade 0-5 by criteria of Test Example 1
Method: as §5, §6

Scirpus juncoides [9] = test: Test Example 2: herbicidal activity, application during weed generation in submerged conditions (symbol B); conditions: Table 23; application herbicide amount 320 g/ha; grade 0-5 by criteria of Test Example 1
Method: as §5, §6

## COCCOc1cc(C)c(C2=C(O)CC(CC(C)=NOC)C2=O)c(C)c1 (centres unmarked) [6-098]
Apera spica-venti
  L: Apera spica-venti, herbicidal effect (criteria of Test Example 1): 4 (Herbicidal ratio of 70% or higher and lower than 90%)
[1]
  Herbicidal effect grade, A: Echinochloa oryzacola Vasing.: 0 (Herbicidal ratio of 5% or lower (almost no effect))
Lolium multiflorum Lam.
  K: Lolium multiflorum Lam., herbicidal effect (criteria of Test Example 1): 5 (Herbicidal ratio of 90% or more (almost completely withered))
Cyperus difformis
  herbicidal effect on E, grade 0-5: 4 (Herbicidal ratio of 70% or higher and lower than 90%)
Stellaria media
  P: Stellaria media, herbicidal effect (criteria of Test Example 1): 0 (Herbicidal ratio of 5% or lower (almost no effect))
rapeseed
  g: rapeseed, effect on crop (criteria of Test Example 1): 0 (Herbicidal ratio of 5% or lower (almost no effect))
wheat
  e: wheat, effect on crop (criteria of Test Example 1): 2 (Herbicidal ratio of 20% or higher and lower than 40%)
Chenopodium album
  O: Chenopodium album, herbicidal effect (criteria of Test Example 1): 0 (Herbicidal ratio of 5% or lower (almost no effect))
Scirpus juncoides [2]
  Herbicidal effect grade, B: Scirpus juncoides: 1 (Herbicidal ratio of 5% or higher and lower than 20%)
Abutilon theophrasti
  M: Abutilon theophrasti, herbicidal effect (criteria of Test Example 1): 0 (Herbicidal ratio of 5% or lower (almost no effect))
soybean
  d: soybean, effect on crop (criteria of Test Example 1): 0 (Herbicidal ratio of 5% or lower (almost no effect))
Monochoria vaginalis [3]
  Herbicidal effect grade, C: Monochoria vaginalis: 0 (Herbicidal ratio of 5% or lower (almost no effect))
corn
  c: corn, effect on crop (criteria of Test Example 1): 1 (Herbicidal ratio of 5% or higher and lower than 20%)
Setaria viridis
  G: Setaria viridis, herbicidal effect (criteria of Test Example 1): 3 (Herbicidal ratio of 40% or higher and lower than 70%)
Digitaria ciliaris
  F: Digitaria ciliaris, herbicidal effect (criteria of Test Example 1): 3 (Herbicidal ratio of 40% or higher and lower than 70%)
Leptochloa chinensis
  herbicidal effect on D (Leptochloa chinensis), grade 0-5: 5 (Herbicidal ratio of 90% or more (almost completely withered))
Rice plant
  b: directly sowed rice plant, effect on crop (criteria of Test Example 1): 2 (Herbicidal ratio of 20% or higher and lower than 40%)
Amaranthus retroflexus
  N: Amaranthus retroflexus, herbicidal effect (criteria of Test Example 1): 0 (Herbicidal ratio of 5% or lower (almost no effect))
[4]
  herbicidal effect on H (Echinochloa crus-galli var. crus-galli), grade 0-5: 3 (Herbicidal ratio of 40% or higher and lower than 70%)
[5]
  effect on crop b (directly sowed rice plant), grade 0-5: 5 (Herbicidal ratio of 90% or more (almost completely withered))
Alopecurus myosuroides
  J: Alopecurus myosuroides, herbicidal effect (criteria of Test Example 1): 3 (Herbicidal ratio of 40% or higher and lower than 70%)
Avena fatua
  I: Avena fatua, herbicidal effect (criteria of Test Example 1): 1 (Herbicidal ratio of 5% or higher and lower than 20%)
Transplanted rice plant
  Effect grade on crop, a: transplanted rice plant: 1 (Herbicidal ratio of 5% or higher and lower than 20%)
Galium spurium
  Q: Galium spurium, herbicidal effect (criteria of Test Example 1): 0 (Herbicidal ratio of 5% or lower (almost no effect))
Veronica persica
  R: Veronica persica, herbicidal effect (criteria of Test Example 1): 0 (Herbicidal ratio of 5% or lower (almost no effect))
[6]
  H: Echinochloa crus-galli var. crus-galli, herbicidal effect (criteria of Test Example 1): 2 (Herbicidal ratio of 20% or higher and lower than 40%)
beet
  f: beet, effect on crop (criteria of Test Example 1): 0 (Herbicidal ratio of 5% or lower (almost no effect))

## CC(CC1CC(O)=C(c2c(C)cc(C)cc2C)C1=O)=NOCc1c(F)cccc1Cl (centres unmarked) [1-115]
Apera spica-venti
  L: Apera spica-venti, herbicidal effect (criteria 0-5): 4 (Herbicidal ratio of 70% or higher and lower than 90%)
[7]
  Herbicidal effect grade, A: Echinochloa oryzacola Vasing.: 3 (Herbicidal ratio of 40% or higher and lower than 70%)
[1]
  Herbicidal effect grade, A: Echinochloa oryzacola Vasing.: 5 (Herbicidal ratio of 90% or more (almost completely withered))
Lolium multiflorum Lam.
  K: Lolium multiflorum Lam., herbicidal effect (criteria 0-5): 3 (Herbicidal ratio of 40% or higher and lower than 70%)
Stellaria media
  P: Stellaria media, herbicidal effect (criteria 0-5): 1 (Herbicidal ratio of 5% or higher and lower than 20%)
rapeseed
  g: rapeseed, effect on crop (criteria 0-5): 5 (Herbicidal ratio of 90% or more (almost completely withered))
wheat
  e: wheat, effect on crop (criteria 0-5): 0 (Herbicidal ratio of 5% or lower (almost no effect))
Chenopodium album
  O: Chenopodium album, herbicidal effect (criteria 0-5): 0 (Herbicidal ratio of 5% or lower (almost no effect))
Monochoria vaginalis [8]
  Herbicidal effect grade, C: Monochoria vaginalis: 0 (Herbicidal ratio of 5% or lower (almost no effect))
Scirpus juncoides [2]
  Herbicidal effect grade, B: Scirpus juncoides: 3 (Herbicidal ratio of 40% or higher and lower than 70%)
Abutilon theophrasti
  M: Abutilon theophrasti, herbicidal effect (criteria 0-5): 0 (Herbicidal ratio of 5% or lower (almost no effect))
soybean
  d: soybean, effect on crop (criteria 0-5): 0 (Herbicidal ratio of 5% or lower (almost no effect))
Scirpus juncoides [9]
  Herbicidal effect grade, B: Scirpus juncoides: 2 (Herbicidal ratio of 20% or higher and lower than 40%)
Monochoria vaginalis [3]
  Herbicidal effect grade, C: Monochoria vaginalis: 4 (Herbicidal ratio of 70% or higher and lower than 90%)
corn
  c: corn, effect on crop (criteria 0-5): 0 (Herbicidal ratio of 5% or lower (almost no effect))
Setaria viridis
  G: Setaria viridis, herbicidal effect (criteria 0-5): 1 (Herbicidal ratio of 5% or higher and lower than 20%)
Digitaria ciliaris
  F: Digitaria ciliaris, herbicidal effect (criteria 0-5): 2 (Herbicidal ratio of 20% or higher and lower than 40%)
Rice plant
  b: directly sowed rice plant, effect on crop (criteria 0-5): 1 (Herbicidal ratio of 5% or higher and lower than 20%)
Amaranthus retroflexus
  N: Amaranthus retroflexus, herbicidal effect (criteria 0-5): 0 (Herbicidal ratio of 5% or lower (almost no effect))
Alopecurus myosuroides
  J: Alopecurus myosuroides, herbicidal effect (criteria 0-5): 3 (Herbicidal ratio of 40% or higher and lower than 70%)
Avena fatua
  I: Avena fatua, herbicidal effect (criteria 0-5): 2 (Herbicidal ratio of 20% or higher and lower than 40%)
Transplanted rice plant
  Effect grade on crop, a: transplanted rice plant: 1 (Herbicidal ratio of 5% or higher and lower than 20%)
Galium spurium
  Q: Galium spurium, herbicidal effect (criteria 0-5): 0 (Herbicidal ratio of 5% or lower (almost no effect))
Veronica persica
  R: Veronica persica, herbicidal effect (criteria 0-5): 1 (Herbicidal ratio of 5% or higher and lower than 20%)
[6]
  H: Echinochloa crus-galli var. crus-galli, herbicidal effect (criteria 0-5): 1 (Herbicidal ratio of 5% or higher and lower than 20%)
beet
  f: beet, effect on crop (criteria 0-5): 0 (Herbicidal ratio of 5% or lower (almost no effect))
